ChEMBL document CHEMBL1177878, “Synthesis and hypolipidemic activity of novel 2-(4-(2-substituted aminothiazole-4-yl) phenoxy) acetic acid derivatives” (Eur J Med Chem, 2010)

Assays:
Rattus norvegicus [1] = assay: Antihyperlipidemic activity in high fat diet-induced hyperlipidemic Sprague-Dawley rat model assessed as reduction of body weight at 250 mg/kg, po for 7 days; assay type: functional
Rattus norvegicus [2] = assay: Antihyperlipidemic activity in high fat diet-induced hyperlipidemic Sprague-Dawley rat model assessed as reduction of blood cholesterol level at 250 mg/kg, po for 7 days (reference value: 128.8 +/- 1.20 mg/dl); assay type: functional
Rattus norvegicus [3] = assay: Antihyperlipidemic activity in high fat diet-induced hyperlipidemic Sprague-Dawley rat model assessed as reduction of blood triglyceride level at 250 mg/kg, po for 7 days (reference value: 142.4 +/- 1.53 mg/dl); assay type: functional
Rattus norvegicus [4] = assay: Toxicity in high fat diet-induced hyperlipidemic Sprague-Dawley rat model assessed as increase of locomotor activity at 250 mg/kg, po for 7 days measured for 5 mins; assay type: organism-based; set-up: dose 250 mg/kg, route oral; conditions: in vivo
Rattus norvegicus [5] = assay: Antihyperlipidemic activity in high fat diet-induced hyperlipidemic Sprague-Dawley rat model assessed as increase of blood HDL level at 250 mg/kg, po for 7 days (reference value: 18.6 +/- 1.36 mg/dl); assay type: functional
Rattus norvegicus [6] = assay: Antihyperlipidemic activity in high fat diet-induced hyperlipidemic Sprague-Dawley rat model assessed as reduction of body circumference at 250 mg/kg, po for 7 days; assay type: functional
Rattus norvegicus [7] = assay: Antihyperlipidemic activity in high fat diet-induced hyperlipidemic Sprague-Dawley rat model assessed as reduction of blood LDL level at 250 mg/kg, po for 7 days (reference value: 51.8 +/- 2.03 mg/dl); assay type: functional
Rattus norvegicus [8] = assay: Antihyperlipidemic activity in high fat diet-induced hyperlipidemic Sprague-Dawley rat model assessed as reduction of blood LDL level at 50 mg/kg, po for 7 days (reference value: 51.8 +/- 2.03 mg/dl); assay type: functional
Rattus norvegicus [9] = assay: Antihyperlipidemic activity in high fat diet-induced hyperlipidemic Sprague-Dawley rat model assessed as reduction of blood VLDL level at 50 mg/kg, po for 7 days (reference value: 26.2 +/- 1.20 mg/dl); assay type: functional
Rattus norvegicus [10] = assay: Antihyperlipidemic activity in high fat diet-induced hyperlipidemic Sprague-Dawley rat model assessed as reduction of body weight at 50 mg/kg, po for 7 days; assay type: functional
Rattus norvegicus [11] = assay: Antihyperlipidemic activity in high fat diet-induced hyperlipidemic Sprague-Dawley rat model assessed as reduction of blood cholesterol level at 50 mg/kg, po for 7 days (reference value: 128.8 +/- 1.20 mg/dl); assay type: functional
Rattus norvegicus [12] = assay: Toxicity in high fat diet-induced hyperlipidemic Sprague-Dawley rat model assessed as increase of locomotor activity at 50 mg/kg, po for 7 days measured for 5 mins; assay type: organism-based; set-up: dose 50 mg/kg, route oral; conditions: in vivo
Rattus norvegicus [13] = assay: Antihyperlipidemic activity in high fat diet-induced hyperlipidemic Sprague-Dawley rat model assessed as reduction of blood triglyceride level at 50 mg/kg, po for 7 days (reference value: 142.4 +/- 1.53 mg/dl); assay type: functional
Rattus norvegicus [14] = assay: Antihyperlipidemic activity in high fat diet-induced hyperlipidemic Sprague-Dawley rat model assessed as reduction of body circumference at 50 mg/kg, po for 7 days; assay type: functional
Rattus norvegicus [15] = assay: Antihyperlipidemic activity in high fat diet-induced hyperlipidemic Sprague-Dawley rat model assessed as increase of blood HDL level at 50 mg/kg, po for 7 days (reference value: 18.6 +/- 1.36 mg/dl); assay type: functional

| SMILES | Activity (Rattus norvegicus [1]) [g] | Activity (Rattus norvegicus [2]) [mg/dL] | Activity (Rattus norvegicus [3]) [mg/dL] | Activity (Rattus norvegicus [4]) | Activity (Rattus norvegicus [5]) [mg/dL] | Activity (Rattus norvegicus [6]) [cm] | Activity (Rattus norvegicus [7]) [mg/dL] | Activity (Rattus norvegicus [8]) [mg/dL] | Activity (Rattus norvegicus [9]) [mg/dL] | Activity (Rattus norvegicus [10]) [g] | Activity (Rattus norvegicus [11]) [mg/dL] | Activity (Rattus norvegicus [12]) | Activity (Rattus norvegicus [13]) [mg/dL] | Activity (Rattus norvegicus [14]) [cm] | Activity (Rattus norvegicus [15]) [mg/dL] |
| --- | --- | --- | --- | --- | --- | --- | --- | --- | --- | --- | --- | --- | --- | --- | --- |
| CC(C)OC(=O)C(C)(C)Oc1ccc(C(=O)c2ccc(Cl)cc2)cc1 [FENOFIBRATE] | 229.666 | 83.2 | 91.6 | Toxic | 28.4 | 9.5 | 37.2 | – | – | – | – | – | – | – | – |
| O=C(O)COc1ccc(-c2csc(NCC(=O)c3ccc([N+](=O)[O-])cc3)n2)cc1 | – | – | – | – | – | – | – | 43.2 | 20.2 | 258.166 | 106.8 | Non-toxic | 122.8 | 12.85 | 24.6 |
| O=C(O)COc1ccc(-c2csc(NCc3ccccc3)n2)cc1 | – | – | – | – | – | – | – | 53.8 | 22.4 | 248.5 | 122.2 | Toxic | 140.2 | 13.066 | 20.2 |
| Nc1ccc(C(=O)CNc2nc(-c3ccc(OCC(=O)O)cc3)cs2)cc1 | – | – | – | – | – | – | – | 36.8 | 26.2 | 237.333 | 77.6 | Toxic | 110.4 | 12 | 27 |
| CC(=O)Nc1nc(-c2ccc(OCC(=O)O)cc2)cs1 | – | – | – | – | – | – | – | 51.4 | 22.6 | 250.833 | 104 | Non-toxic | 107.6 | 12.516 | 31.8 |
| CCC(=O)Nc1nc(-c2ccc(OCC(=O)O)cc2)cs1 | – | – | – | – | – | – | – | 33 | 21 | 224.166 | 86.6 | Toxic | 103.6 | 10.483 | 30.4 |
| O=C(O)COc1ccc(-c2csc(NC(=O)CCl)n2)cc1 | – | – | – | – | – | – | – | 34.8 | 28 | 230.666 | 92 | Toxic | 118.4 | 9.5 | 34.4 |
| O=C(O)COc1ccc(-c2csc(NCC(=O)c3ccc(Cl)cc3)n2)cc1 | – | – | – | – | – | – | – | 50 | 27.2 | 220.5 | 119.2 | Toxic | 136.6 | 12.35 | 18.6 |
| O=C(O)COc1ccc(-c2csc(NC(=O)c3ccccc3)n2)cc1 | – | – | – | – | – | – | – | 34.2 | 25 | 239.666 | 89.2 | Toxic | 114.6 | 13.1 | 28.4 |
